We go through 18 compounds from ChEMBL document CHEMBL1250532, “Structure-based virtual screening of novel tubulin inhibitors and their characterization as anti-mitotic agents” (Bioorg Med Chem, 2010).

SMILES strings stand for the structures.

The subject of test [1] is HL-60. The experiment in a line: Antiproliferative activity against human HL60 cells after 48 hrs by MTT assay. It counts as functional, cell-based. To be noted: HL-60, 48 h. In general terms: Formazan colour is commonly taken as a measure of viable cells.
Test [2] is described as follows: Inhibition of polymerization of tubulin by turbidimetry.
For test [3], the system named is HL-60. Description: Induction of apoptosis in human HL60 cells after 48 hrs using propidium iodide by flow cytometry. It counts as functional, cell-based. To be noted: for EC50: HL-60, 48 h. (In flow cytometry, cells or beads pass a laser one at a time.)
Test [4] has as its system HL-60. Description: Ratio of compound EC50 to E7010 EC50 for human HL60 cells. The test is classed as functional.
The subject of test [5] is HL-60. Description: Induction of apoptosis in human HL60 cells assessed as fractions of fragmented DNA at 0.05 uM after 48 hrs using propidium iodide staining by flow cytometry (reference value: 1.66%). The test is classed as functional.
Test [6] relates to HL-60. The experiment in a line: Induction of apoptosis in human HL60 cells assessed as fractions of fragmented DNA at 0.1 uM after 48 hrs using propidium iodide staining by flow cytometry (reference value: 1.66%). The test is classed as functional.
In test [7] the test system is HL-60. Description: Induction of apoptosis in human HL60 cells assessed as fractions of fragmented DNA at 0.25 uM after 48 hrs using propidium iodide staining by flow cytometry (reference value: 1.66%). It counts as functional.
The test system of test [8] is HL-60. The experiment in a line: Induction of apoptosis in human HL60 cells assessed as fractions of fragmented DNA at 0.1 uM after 24 hrs using propidium iodide staining by flow cytometry (reference value: 0.53%). The test is classed as functional.
Test [9] has as its system HL-60. Description: Cell cycle arrest in human HL60 cells assessed as accumulation at G0/G1 phase at 0.1 uM after 24 hrs using propidium iodide staining by flow cytometry (reference value: 55.47%). It counts as functional.
Test [10] concerns HL-60. Description: Cell cycle arrest in human HL60 cells assessed as accumulation at S phase at 0.1 uM after 24 hrs using propidium iodide staining by flow cytometry (reference value: 17.62%). It counts as functional.
Test [11] has as its system HL-60. Description: Cell cycle arrest in human HL60 cells assessed as accumulation at G2/M phase at 0.1 uM after 24 hrs using propidium iodide staining by flow cytometry (reference value: 22.26%). It counts as functional.
The subject of test [12] is HL-60. The experiment in a line: Induction of apoptosis in human HL60 cells assessed as fractions of fragmented DNA at 0.5 uM after 48 hrs using propidium iodide staining by flow cytometry (reference value: 1.66%). It counts as functional.
For test [13], the system named is HL-60. Description: Induction of apoptosis in human HL60 cells assessed as fractions of fragmented DNA at 1 uM after 48 hrs using propidium iodide staining by flow cytometry (reference value: 1.66%). It counts as functional.
Test [14] has as its system HL-60. Description: Induction of apoptosis in human HL60 cells assessed as fractions of fragmented DNA at 0.5 uM after 24 hrs using propidium iodide staining by flow cytometry (reference value: 0.53%). The test is classed as functional.
Test [15] has as its system HL-60. The experiment in a line: Cell cycle arrest in human HL60 cells assessed as accumulation at G0/G1 phase at 0.5 uM after 24 hrs using propidium iodide staining by flow cytometry (reference value: 55.47%). The test is classed as functional.
Test [16] concerns HL-60. Description: Cell cycle arrest in human HL60 cells assessed as accumulation at S phase at 0.5 uM after 24 hrs using propidium iodide staining by flow cytometry (reference value: 17.62%). The test is classed as functional.
In test [17] the test system is HL-60. The experiment in a line: Cell cycle arrest in human HL60 cells assessed as accumulation at G2/M phase at 0.5 uM after 24 hrs using propidium iodide staining by flow cytometry (reference value: 22.26%). It counts as functional.

As a reminder, the IC50 is the point on the concentration scale where inhibition reaches its midpoint. A low value points to greater potency in that assay. In test [1], `COc1ccccc1NC(=O)CSc1nnc(-c2cc(OC)c(OC)c(OC)c2)n1-c1ccc(C)cc1` registered a concentration for half-maximal inhibition (IC50) of 2400 nM.
For orientation: EC50 means the midpoint of the concentration-response curve. High values mean lower potency in that assay, low ones higher potency in that assay. For `COc1ccc(C2=CC(c3cc(OC)c(OC)c(OC)c3)n3ncnc3N2)cc1` (configuration not stated), the values for the IC50 in test [1] and in [2] were 190 nM and 10400 nM, respectively. The Activity entry in [3] is “Dose-dependent effect”; in [5] it was 4.94%; in test [6] it was 77.49%; in [7], 92.36%; in test [8], 0.93%; in test [9] it was 51.67%. Further, the Activity in test [10] is 18.82%; in test [11], 24.39%. In addition, in test [3], a half-maximal response (EC50) required 80 nM. In addition, in [4], the “Ratio EC50” value is given as 2.
As for `COc1cc(C2C=C(c3cccs3)Nc3ncnn32)cc(OC)c1OC` (configuration not stated), the IC50 is 100 nM in test [1] and 12800 nM in test [2]. For the same compound, the Activity entry is “Dose-dependent effect” in test [3]; 6.03% in test [5]; 10.35% in test [12]; 85.69% in [13]; 0.48% in test [14]; 53.87% in [15]. For the same compound, the Activity amounted to 15.16% in test [16] and 25.93% in test [17]. The compound also had an EC50 in test [3] of 780 nM.
As for `COc1cc(C(=O)c2c(C)cn3c(CCC#N)cccc23)cc(OC)c1OC`, the results for the IC50 in test [1] and in test [2] were 1400 nM and 5000 nM, respectively.
On the same counts, the results for `CCc1ccc(C2=CC(c3cc(OC)c(OC)c(OC)c3)n3ncnc3N2)cc1` (configuration not stated) are 370 nM and above 25000 nM.
As for `COc1cc(C(=O)/C(=C/c2cccnc2)c2nc3ccccc3o2)cc(OC)c1OC`, in test [1], half-maximal inhibition (IC50) was put at 1700 nM.
Regarding `COc1cc(/C=C(/C(=O)O)c2ccc(-c3ccccc3)cc2)cc(OC)c1OC`, inhibition in [1] was half-maximal at 2400 nM (IC50). The IC50 values of the last two compounds are within 1.5-fold of each other.
On the same count and under the same terms, the result for `COc1cc(/C=C(/C(=O)c2cc(OC)c(OC)c(OC)c2)c2nc3ccccc3o2)cc(OC)c1OC` reads 1700 nM.
Take `COc1cc(C2C=C(c3ccc(Cl)cc3)Nc3ncnn32)cc(OC)c1OC` (configuration not stated): the IC50 in test [1] is 390 nM; in test [2] it was above 25000 nM.
With `COc1cc(C2C=C(c3ccccc3)Nc3ncnn32)cc(OC)c1OC` (configuration not stated), the concentration for half-maximal inhibition (IC50) in test [1] worked out at 170 nM; in test [2] it was 13700 nM. The Activity entry in [3] was “Dose-dependent effect”; in test [5], 4.32%; in test [6] it was 4.06%; in test [7] it was 60.88%; in [8], 0.81%; in test [9] it was 53.51%. The Activity in test [10] stood at 15.92%; in test [11], 25.82%. In test [3], this compound gave an EC50 of 220 nM. For the same compound, the “Ratio EC50” value in test [4] worked out at 2.
For the compound `COc1cc(C(=O)N2c3ccccc3CC2C)cc(OC)c1OC` (configuration not stated), half-maximal inhibition in [1] (IC50) was put at 3200 nM.
In [1], `COc1cc(C(=O)N2CCCc3ccccc32)cc(OC)c1OC` had a concentration for half-maximal inhibition (IC50) of 2000 nM.
Turning to `COc1cc(C2C=C(c3ccc(C)cc3)Nc3ncnn32)cc(OC)c1OC` (configuration not stated), the IC50 in test [1] is 130 nM; in test [2], 12800 nM. Also, the Activity entry in test [3] is “Dose-dependent effect”; in test [5] it was 4.61%; in test [6] it was 89.85%; in [7] it was 90.56%; in test [8], 22.94%; in [9], 9.7%. For the same compound, the Activity in test [10] was 16.5%; in test [11], 48.64%. Further, in test [3], the response was half-maximal at 70 nM (EC50). Further, the “Ratio EC50” value in test [4] worked out at 2.
Consider `COc1cc(C(=O)c2c(-c3ccccc3)cc3ccccn23)cc(OC)c1OC`, for which the figures for the IC50 in test [1] and in test [2] were 600 nM and 20000 nM, respectively.
`COc1ccc(/C=C(/C(=O)c2cc(OC)c(OC)c(OC)c2)c2nc3ccccc3o2)cc1` registered an IC50 in test [1] of 2400 nM. That is a single-digit micromolar value.
Still for that read-out and setting: the result for `COc1cc(C(=O)N2CCc3ccccc32)cc(OC)c1OC` reads 2000 nM.
Take `COc1ccc(C2=CC(c3cc(OC)c(OC)c(OC)c3)n3ncnc3N2)cc1OC` (configuration not stated): the concentration for half-maximal inhibition (IC50) in [1] is 340 nM; in test [2], above 24000 nM.
On the same counts, the results for `COc1cc(C2C=C(c3cccc(NC(C)=O)c3)Nc3ncnn32)cc(OC)c1OC` (configuration not stated) are 330 nM and above 25000 nM.
